According to patent US6544773B1, “Microbial process for degradation of PCBS in clophen A-50 using a novel marine microorganism, Pseudomonas CH07” (priority 2001, dated 2003):

Tests used:
Pseudomonas CH07 [1] = assay: Taxonomical characteristics: growth of Pseudomonas CH07 on antibiotics; assay type: cell-based; set-up: key: −: negative response (no growth); +: positive response (slight or moderate growth); ++: very good response (good growth); conditions: Table 1, taxonomical tests
Pseudomonas CH07 [2] = assay: Degradation of PCB congeners of Clophen A-50 by Pseudomonas CH07 in seawater nutrient broth, GC-ECD analysis; conditions: for Degradation Of PCBs: 40 hrs incubation with Pseudomonas CH07, versus control; for Conc. of PCBs in Test sol. (incubation) 40 hrs.: incubation with Pseudomonas CH07 for 40 hrs, Clophen A-50 100 ppm in seawater nutrient broth
Method: A defined seawater nutrient broth medium (code no. 088 from Himedia, Bombay) containing beef extract 3 g L^−1, peptic digest of animal tissue 5 g L^−1 was used. One liter of medium contained 500 ml seawater and 500 ml distilled water and the final pH was adjusted to 7 using 0.1 N NaOH. After autoclaving, the required amount of stock solution (10,000 ppm) of Clophen A-50 was added to the medium in sterile condition to achieve a final concentration of 100 ppm. Immediately after adding the stock PCBs solution, the hexane part of it was evaporated out by gently swirling the flask in sterile condition and sterile glycerol was added to the medium in a 1:1 ratio of stock solution:glycerol. 40 μl of 24 hold culture of Pseudomonas CH07 growths was added in two replicates of 20 ml of test (seawater nutrient broth+Clophen A-50) medium to seawater nutrient broth (without any addition of Clophen A-50). Controls in duplicate were also maintained without the addition of the organism at room temperature (ca. 28°±2° C.). Control and test cultures were maintained at room temperature for two days and at various predecided intervals of time, the samples was taken out aseptically and prepared for GC analysis. The details of the sample preparation is described below.
The PCBs were analyzed following the method described by Boon et al. The method was standardized in our laboratory using the PCBs standards obtained from Promochem, Germany as well as other analytical grade chemicals from E. Merck. The purity of the solvents was checked by Gas chromatography for each of the bottles. The different adsorbents, alumina, silica, were purified by soxhlet extraction with di-chloro-methane (HPLC grade) for about eight hours. The anhydrous Na2SO4 and the glass wool were also purified by Soxhlet extraction with HPLC grade di-chloro methane. The different steps of the analytical methods are illustrated below:
i. Aliquot of 1 ml sample was treated with 1 ml n-hexane (HPLC grade) thrice and thoroughly mixed by a vortex mixture for five minutes each time. The upper part of the solvent layer (solvent extract) was separated with the help of micropipette and transferred to a sterilized glass tube.
ii. Concentrate the solvent extract to 1 ml by evaporation with Snyder column evaporator on a water bath at 85° C.
iii. Purify of the solvent extract by alumina clean up using micro-column technique.
iv. Concentrate the solvent extract to 1 ml by evaporation with Snyder column evaporator on a water bath at 85° C.
v. Isolate PCBs from polar chlorinated compounds by eluting through micro-column of silica.
vi. Concentrate the PCBs fraction to 1 ml by evaporation with Snyder column evaporator on a water bath at 85° C.
vii. Analyze the aliquot by GC-ECD with reference to standard PCBs (individual congeners).
The samples were analyzed by gas chromatography (Varian GC-3380) coupled with an electron capture detector and an autosampler 8200. Capillary column VA-5 (30 m×0.25 mm) was employed with electron capture detector […] for peak detection. Argon with 5% methane was the carrier gas. A temperature program was used (table. 3). […] The experimental condition of the instrument is illustrated in the table-4. The analysis of PCBs was calibrated using the standards for individual congeners of PCBs obtained from Promochem, Germany. Using different dilutions of the stock solution of the standards carried out the calibration of each of the individual congeners. The linearity of the calibration curve was determined with a range of dilution of the mix-standards.

Q: Neomycin was tested. Which “Growth on (Response)” value (Pseudomonas CH07 [1]) did it give?
A: ++

Q: With `Clc1cc(Cl)c(-c2cc(Cl)c(Cl)c(Cl)c2Cl)cc1Cl` [CB-180, 2,2′,3,4,4′,5,5′-Heptachloro] as the compound, how does the “Degradation Of PCBs” value (Pseudomonas CH07 [2]) read?
A: 61.33%

Q: `Clc1cc(Cl)c(-c2ccc(Cl)c(Cl)c2Cl)cc1Cl` [CB-138, 2,2′,3,4,4′,5′-Hexachloro] was tested. Which “Degradation Of PCBs” value (Pseudomonas CH07 [2]) did it give?
A: 55.97%

Q: With `Clc1cc(Cl)c(-c2ccc(Cl)c(Cl)c2)c(Cl)c1` [CB-119, 2,3′,4,4′,6-Pentachloro] as the compound, how does the “Degradation Of PCBs” value (Pseudomonas CH07 [2]) read?
A: 19.66%

Q: What about the “Conc. of PCBs in Test sol. (incubation) 40 hrs.” value (“Conc. of PCBs” below) (Pseudomonas CH07 [2]) of the same compound?
A: 6.48 ng/mL

Q: How did the “Degradation Of PCBs” value (Pseudomonas CH07 [2]) turn out when `Clc1ccc(Cl)c(-c2cc(Cl)c(Cl)cc2Cl)c1` [CB-101, 2,2′,4,5,5′-Pentachloro] was run?
A: 20.19%

Q: For `Clc1cc(Cl)c(-c2cccc(Cl)c2Cl)cc1Cl` [CB-97, 2,2′,3′,4,5-Pentachloro], which “Degradation Of PCBs” value (Pseudomonas CH07 [2]) is on record?
A: 19.69%

Q: How did the “Degradation Of PCBs” value (Pseudomonas CH07 [2]) turn out when `Clc1ccc(-c2ccc(Cl)c(Cl)c2Cl)cc1Cl` [CB-105, 2,3,3′,4,4′-Pentachloro] was run?
A: 46.69%

Q: Which “Growth on (Response)” value (Pseudomonas CH07 [1]) does the source give for `CN(C)[C@@H]1C(O)=C(C(N)=O)C(=O)[C@@]2(O)C(O)=C3C(=O)c4c(O)cccc4[C@@](C)(O)[C@H]3C[C@@H]12` [Tetracycline] here?
A: ++

Q: How did the “Degradation Of PCBs” value (Pseudomonas CH07 [2]) turn out when `Clc1c(Cl)c(Cl)c(-c2ccccc2)c(Cl)c1Cl` [CB-116, 2,3,4,5,6-Pentachloro] was run?
A: 20.04%

Q: And the “Conc. of PCBs” value (Pseudomonas CH07 [2])?
A: 8.06 ng/mL

Q: With `Clc1ccc(-c2ccc(Cl)c(Cl)c2Cl)c(Cl)c1Cl` [CB-128, 2,2′,3,3′,4,4′-Hexachloro] as the compound, how does the “Degradation Of PCBs” value (Pseudomonas CH07 [2]) read?
A: 64.33%

Q: With `Clc1ccc(Cl)c(-c2c(Cl)c(Cl)cc(Cl)c2Cl)c1` [CB-151, 2,2′,3,5,5′,6-Hexachloro] as the compound, how does the “Degradation Of PCBs” value (Pseudomonas CH07 [2]) read?
A: 37.32%

Q: With `Clc1ccc(Cl)c(-c2cc(Cl)c(Cl)c(Cl)c2Cl)c1` [CB-141, 2,2′,3,4,5,5′-Hexachloro] as the compound, how does the “Degradation Of PCBs” value (Pseudomonas CH07 [2]) read?
A: 55.38%

Q: Which “Degradation Of PCBs” value (Pseudomonas CH07 [2]) does the source give for `Clc1ccc(-c2c(Cl)c(Cl)c(Cl)c(Cl)c2Cl)c(Cl)c1` [CB-181, 2,2′,3,4,4′,5,6-Heptachloro] here?
A: 100%

Q: For `[H]/N=C(/N)N[C@H]1[C@H](O)[C@@H](O)[C@H](O[C@@H]2O[C@@H](C)[C@](O)(C=O)[C@H]2O[C@@H]2O[C@@H](CO)[C@H](O)[C@@H](O)[C@@H]2NC)[C@@H](N/C(N)=N\[H])[C@@H]1O` [Streptomycin], which “Growth on (Response)” value (Pseudomonas CH07 [1]) is on record?
A: ++

Q: How did the “Growth on (Response)” value (Pseudomonas CH07 [1]) turn out when `CN(C)[C@@H]1C(O)=C(C(N)=O)C(=O)[C@@]2(O)C(O)=C3C(=O)c4c(O)ccc(Cl)c4[C@@H](O)[C@H]3C[C@@H]12` [Demechlocyclin] was run?
A: ++

Q: `NC[C@H]1O[C@H](O[C@H]2[C@H](O)[C@@H](O[C@H]3O[C@H](CO)[C@@H](O)[C@H](N)[C@H]3O)[C@H](N)C[C@@H]2N)[C@H](O)[C@@H](O)[C@@H]1O` [Kanamycin] was tested. Which “Growth on (Response)” value (Pseudomonas CH07 [1]) did it give?
A: ++

Q: `Clc1ccc(-c2cc(Cl)c(Cl)cc2Cl)cc1Cl` [CB-118, 2,3′,4,4′,5-Pentachloro] was tested. Which “Degradation Of PCBs” value (Pseudomonas CH07 [2]) did it give?
A: 40.72%

Q: `Clc1ccc(-c2cc(Cl)c(Cl)c(Cl)c2)cc1Cl` [CB-126, 3,3′,4,4′,5-Pentachloro] was tested. Which “Degradation Of PCBs” value (Pseudomonas CH07 [2]) did it give?
A: 100%

Q: What about the “Conc. of PCBs” value (Pseudomonas CH07 [2]) of the same compound?
A: 00.00 ng/mL

Q: Which “Degradation Of PCBs” value (Pseudomonas CH07 [2]) does the source give for `Clc1ccc(-c2ccc(Cl)c(Cl)c2)cc1Cl` [CB-77, 3,3′,4,4′-tetrachlorobiphenyl] here?
A: 24.25%

Q: What about the “Conc. of PCBs” value (Pseudomonas CH07 [2]) of the same compound?
A: 40.42 ng/mL
